For one series, the target named is T1, PDE4B (human recombinant) (Homo sapiens, UniProt Q07343).
T1 construct: made in house
T1 sequence (Q07343 1-564 isoform Q07343-2): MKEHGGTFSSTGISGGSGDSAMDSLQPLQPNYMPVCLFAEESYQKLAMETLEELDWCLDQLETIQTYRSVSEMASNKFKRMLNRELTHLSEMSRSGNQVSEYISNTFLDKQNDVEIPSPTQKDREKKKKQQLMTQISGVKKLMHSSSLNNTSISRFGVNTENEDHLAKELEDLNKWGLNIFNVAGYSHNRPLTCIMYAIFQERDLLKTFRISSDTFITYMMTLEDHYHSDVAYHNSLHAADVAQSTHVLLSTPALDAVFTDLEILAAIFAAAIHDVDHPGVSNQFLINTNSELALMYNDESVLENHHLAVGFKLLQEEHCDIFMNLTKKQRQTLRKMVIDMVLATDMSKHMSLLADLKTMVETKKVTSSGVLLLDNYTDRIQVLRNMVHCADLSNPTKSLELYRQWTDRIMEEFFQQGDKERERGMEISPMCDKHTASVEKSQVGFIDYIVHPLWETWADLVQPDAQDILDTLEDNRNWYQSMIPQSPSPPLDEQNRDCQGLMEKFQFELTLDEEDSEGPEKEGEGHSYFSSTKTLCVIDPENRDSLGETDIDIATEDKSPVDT
The series can be described thus: Inhibition of PDE4B activity: radioactive SPA or IMAP Fluorescence Polarisation (FP) assay. The class given is biochemical. The conditions noted are these: PDE4B inhibitory activity, one reading or average of ca. 2-6 readings, read-out: PDE4B pIC50 (± about 0.5) (converted). From the text:
Human recombinant PDE4B, in particular the 2B splice variant thereof (HSPDE4B2B), is disclosed in WO 94/20079 and also M. M. McLaughlin et al., “A low Km, rolipram-sensitive, cAMP-specific phosphodiesterase from human brain: cloning and expression of cDNA, biochemical characterisation of recombinant protein, and tissue distribution of mRNA”, J. Biol. Chem., 1993, 268, 6470-6476. For example, in Example 1 of WO 94/20079, human recombinant PDE4B is described as being expressed in the PDE-deficient yeast Saccharomyces cerevisiae strain GL62, e.g. after induction by addition of 150 uM CuSO4, and 100,000×g supernatant fractions of yeast cell lysates are described for use in the harvesting of PDE4B enzyme.
The ability of compounds to inhibit catalytic activity at PDE4B or 4D (human recombinant), PDE3 (from bovine aorta), PDE5 (human recombinant) or PDE6 (from bovine retina) was determined by Scintillation Proximity Assay (SPA) in 96-well format. Test compounds (preferably as a solution in DMSO, e.g. 0.5 to 1 microlitre (ul) volume) were preincubated at ambient temperature (room temperature, e.g. 19-23° C.) in Wallac Isoplates (code 1450-514) with PDE enzyme in 50 mM Tris-HCl buffer pH 7.5, 8.3 mM MgCl2, 1.7 mM EGTA, 0.05% (w/v) bovine serum albumin for 10-30 minutes (usually 30 minutes). The enzyme concentration was adjusted so that no more than 20% hydrolysis of the substrate defined below occurred in control wells without compound, during the incubation. For the PDE3, PDE4B and PDE4D assays, [5′,8-^3H]Adenosine 3′,5′-cyclic phosphate (Amersham Pharmacia Biotech, code TRK.559; or Amersham Biosciences UK Ltd, Pollards Wood, Chalfont St Giles, Buckinghamshire HP8 4SP, UK) was added to give 0.05 uCi per well and ˜10 nM final concentration. For the PDE5 and PDE6 assays, [8-^3H]Guanosine 3′,5′-cyclic phosphate (Amersham Pharmacia Biotech, code TRK.392) was added to give 0.05 uCi per well and ˜36 nM final concentration. Plates, e.g. containing approx. 100 ul volume of assay mixture, were mixed on an orbital shaker for 5 minutes and incubated at ambient temperature for 1 hour. Phosphodiesterase SPA beads (Amersham Pharmacia Biotech, code RPNQ 0150) were added ([…] per well) to terminate the assay. Plates were sealed and shaken and allowed to stand at ambient temperature for 35 minutes to 1 hour (preferably 35 minutes) to allow the beads to settle. Bound radioactive product was measured using a WALLAC TRILUX 1450 Microbeta scintillation counter. For inhibition curves, 10 concentrations (1.5 nM-30 uM) of each compound were assayed. Curves were analysed using ActivityBase and XLfit (ID. Business Solutions Limited, 2 Ocean Court, Surrey Research Park, Guildford, Surrey GU2 7QB, United Kindgom) Results were expressed as pIC50 values.
The ability of compounds to inhibit catalytic activity at PDE4B (human recombinant) or PDE4D (human recombinant) was determined by IMAP Fluorescence Polarisation ([…]) assay (IMAP Explorer kit, available from Molecular Devices Corporation, Sunnydale, Calif., USA; Molecular Devices code: R^8062) in 384-well format. The IMAP FP assay is able to measure PDE activity in an homogenous, non-radioactive assay format. The FP assay uses the ability of immobilised trivalent metal cations, coated onto nanoparticles (tiny beads), to bind the phosphate group of Fl-AMP that is produced on the hydrolysis of fluorescein-labelled (Fl) cyclic adenosine mono-phosphate (Fl-cAMP) to the non-cyclic Fl-AMP form. […] Binding of Fl-AMP product to the beads (coated with the immobilised trivalent cations) slows the rotation of the bound Fl-AMP and leads to an increase in the fluorescence polarisation ratio of parallel to perpendicular light. Inhibition of the PDE reduces/inhibits this signal increase. […]
In general terms: Fluorescence polarisation rises when a labelled molecule tumbles more slowly, as on binding a larger partner.
With `CCn1ncc2c(NC3CCOCC3)c(C(=O)NCc3ccc(C)c(C)c3)cnc21` [Example 518, N-[(3,4-dimethylphenyl)methyl]-1-ethyl-4-(tetrahydro-2H-pyran-4-ylamino)-1H-pyrazolo[3,4-b]pyridine-5-carboxamide], the IC50 is 0.1 to 6.31 nM. Same read-out and setting: then `CCn1ncc2c(NC3CCOCC3)c(C(=O)NCc3cnn(C)c3)cnc21` [Example 178, 1-Ethyl-N-[(1-methyl-1H-pyrazo1-4-yl)methyl]-4-(tetrahydro-2H-pyran-4-ylamino)-1H-pyrazolo[3,4-b]pyridine-5-carboxamide], with 12.6 to 100 nM. Still for that read-out and setting: the value for `CCn1ncc2c(NC3CCOCC3)c(C(=O)NCc3ccc(Cl)cc3C)cnc21` [Example 494, N-[(4-Chloro-2-methylphenyl)methyl]-1-ethyl-4-(tetrahydro-2H-pyran-4-ylamino)-1H-pyrazolo[3,4-b]pyridine-5-carboxamide] was 0.1 to 6.31 nM; that for `CCn1ncc2c(NC3CCOCC3)c(C(N)=O)cnc21` [Example 36, 1-Ethyl-4-(tetrahydro-2H-pyran-4-ylamino)-1H-pyrazolo[3,4-b]pyridine-5-carboxamide] was 12.6 to 100 nM; that for `CCn1ncc2c(NC3CCC(=O)CC3)c(C(=O)NCc3ccc(OC(F)F)cc3)cnc21` [Example 266, N-({4-[(Difluoromethyl)oxy]phenyl}methyl)-1-ethyl-4-[(4-oxocyclohexyl)amino]-1H-pyrazolo[3,4-b]pyridine-5-carboxamide] was 0.1 to 6.31 nM. Take `CCn1ncc2c(NC3CCCCC3)c(C(=O)Nc3ccc(F)cc3)cnc21` [Example 48, 4-(Cyclohexylamino)-1-ethyl-N-(4-fluorophenyl)-1H-pyrazolo[3,4-b]pyridine-5-carboxamide]: the IC50 was 12.6 to 100 nM.

On to `CCn1ncc2c(NC3CCOCC3)c(C(=O)NCc3ccc(S(C)(=O)=O)cc3)cnc21` [Example 100, 1-Ethyl-N-[4-(methylsulfonyl)benzyl]-4-(tetrahydro-2H-pyran-4-ylamino)-1H-pyrazolo[3,4-b]pyridine-5-carboxamide], for which the IC50 was 0.1 to 6.31 nM. Turning to `CCn1ncc2c(NC3CCC(=O)CC3)c(C(=O)NCc3ccc(C)c(C)c3)cnc21` [Example 261, N-[(3,4-Dimethylphenyl)methyl]-1-ethyl-4-[(4-oxocyclohexyl)amino]-1H-pyrazolo[3,4-b]pyridine-5-carboxamide], the IC50 was 0.1 to 6.31 nM.

As for `CCc1ccc(CNC(=O)c2cnc3c(cnn3CC)c2NC2CCOCC2)cc1` [Example 636, 1-Ethyl-N-[(4-ethylphenyl)methyl]-4-(tetrahydro-2H-pyran-4-ylamino)-1H-pyrazolo[3,4-b]pyridine-5-carboxamide], the IC50 is 0.1 to 6.31 nM.

For `CCn1ncc2c(NC3CCOCC3)c(C(=O)NCc3nccs3)cnc21` [Example 109, 1-Ethyl-4-(tetrahydro-2H-pyran-4-ylamino)-N-(1,3-thiazol-2-ylmethyl)-1H-pyrazolo[3,4-b]pyridine-5-carboxamide], the IC50 was 12.6 to 100 nM. Take `CCn1ncc2c(NC3CCC(=O)CC3)c(C(=O)NCc3ccc(Cl)cc3C)cnc21` [Example 679, N-[(4-Chloro-2-methylphenyl)methyl]-1-ethyl-4-[(4-oxocyclohexyl)amino]-1H-pyrazolo[3,4-b]pyridine-5-carboxamide]: the IC50 was 0.1 to 6.31 nM. The same measure, in the same setting: then `CCn1ncc2c(NC3CCC(=O)CC3)c(C(=O)NCc3ccc(C)c(Cl)c3)cnc21` [Example 678, N-[(3-Chloro-4-methylphenyl)methyl]-1-ethyl-4-[(4-oxocyclohexyl)amino]-1H-pyrazolo[3,4-b]pyridine-5-carboxamide], with 0.1 to 6.31 nM; and `CCn1ncc2c(NC3CCOCC3)c(C(=O)NCc3ccc(CC(C)C)cc3)cnc21` [Example 645, 1-Ethyl-N-{[4-(2-methylpropyl)phenyl]methyl}-4-(tetrahydro-2H-pyran-4-ylamino)-1H-pyrazolo[3,4-b]pyridine-5-carboxamide], with 0.1 to 6.31 nM; and `CCn1ncc2c(NC3CCOCC3)c(C(=O)NCc3ccccc3)c(C)nc21` [Example 196, N-Benzyl-1-ethyl-6-methyl-4-(tetrahydro-2H-pyran-4-ylamino)-1H-pyrazolo[3,4-b]pyridine-5-carboxamide], with 12.6 nM. Same read-out and setting: the value for `CCn1ncc2c(NC3CCC(=O)CC3)c(C(=O)NCc3ccccc3)cnc21` [Example 201, N-Benzyl-1-ethyl-4-[(4-oxocyclohexyl)amino]-1H-pyrazolo[3,4-b]pyridine-5-carboxamide] was 0.1 to 6.31 nM.

System in a further series: not listed separately
The series is described as follows: Particle size analysis of micronised material by laser diffraction (Malvern Mastersizer). The class given is physicochemical. The conditions noted are these: micronised material Procedure 2, material from collection vessel. The text has this: For pharmaceutical compositions suitable and/or adapted for inhaled administration, it is preferred that the compound or salt of formula (I) is in a particle-size-reduced form, and more preferably the size-reduced form is obtained or obtainable by micronisation. Micronisation usually involves subjecting the compound/salt to collisional and abrasional forces in a fast-flowing circular or spiral/vortex-shaped airstream often including a cyclone component. The preferable particle size (e.g. D50 value) of the size-reduced (e.g. micronised) compound or salt is about 0.5 to about 10 microns, e.g. about 1 to about 5 microns (e.g. as measured using laser diffraction). For example, it is preferable for the compound or salt of formula (I to have a particle size defined by: a D10 of about 0.3 to about 3 microns (e.g. about 1 micron), and/or a D50 of about 1 to about 5 microns (e.g. about 2-5 or about 2-3 microns), and/or a D90 of about 2 to about 20 microns or about 3 to about 10 microns (e.g. about 5-8 or about 5-6 microns); for example as measured using laser diffraction. The laser diffraction measurement can use a dry method (suspension of compound/salt in airflow crosses laser beam) or a wet method [suspension of compound/salt in liquid dispersing medium, such as isooctane or (e.g. if compound soluble in isooctane) 0.1% Tween 80 in water, crosses laser beam]. With laser diffraction, particle size is preferably calculated using the Fraunhofer calculation; and/or preferably a Malvern Mastersizer or Sympatec apparatus is used for measurement.
Particle size analysis of Example 518 micronised material from Procedure 2, using laser diffraction measurement with Malvern Mastersizer longbed version, dispersing medium 0.1% Tween 80 in water, stir rate 1500 rpm, 3 mins sonification prior to final dispersion and analysis, 300 RF Reverse Fourier) lens, Fraunhofer calculation with Malvern software: • material from collection vessel: D10=0.97 microns, D50=3.86 microns, D90=12.64 microns. • material from inside walls of cyclone: D10=0.95 microns, D50=3.42 microns, D90=9.42 microns.
As for `CCn1ncc2c(NC3CCOCC3)c(C(=O)NCc3ccc(C)c(C)c3)cnc21` [Example 518, N-[(3,4-dimethylphenyl)methyl]-1-ethyl-4-(tetrahydro-2H-pyran-4-ylamino)-1H-pyrazolo[3,4-b]pyridine-5-carboxamide], the “particle size D10” value stood at 0.97 microns, the “particle size D50” value stood at 3.86 microns and the “particle size D90” value is reported as 12.64 microns.

The same series, now with this note: micronised material Procedure 2, material from inside walls of cyclone.
As for `CCn1ncc2c(NC3CCOCC3)c(C(=O)NCc3ccc(C)c(C)c3)cnc21` [Example 518, N-[(3,4-dimethylphenyl)methyl]-1-ethyl-4-(tetrahydro-2H-pyran-4-ylamino)-1H-pyrazolo[3,4-b]pyridine-5-carboxamide], the “particle size D10” value is recorded as 0.95 microns, the “particle size D50” value is reported as 3.42 microns and the “particle size D90” value is reported as 9.42 microns.

The values above are taken from US20060089375A1, “Pyrazolo[3,4-b] pyridine compounds, and their use as phosphodiesterase inhibitors” (priority 2002, published 2006).
